Source: ChEMBL document CHEMBL3585240, “Synthesis and biological evaluation of caracasine acid derivatives” (Bioorg Med Chem, 2015)
Calls of active or inactive are those of the source. No cut-off for these calls is given here.

Key:
Bacillus cereus [1] = experiment: Antibacterial activity against Bacillus cereus ATCC 14579 assessed as growth inhibition at 5 ug after 24 hrs by disc agar diffusion method; type: functional; conditions: ATCC 14579, 24 h, read-out: DIZ
Pseudomonas aeruginosa [2] = experiment: Antibacterial activity against Pseudomonas aeruginosa ATCC 27853 assessed as growth inhibition at 5 ug after 24 hrs by disc agar diffusion method; type: functional; conditions: ATCC 27853, 24 h, read-out: DIZ
Staphylococcus aureus [3] = experiment: Antibacterial activity against Staphylococcus aureus ATCC 25923 assessed as growth inhibition at 5 ug after 24 hrs by disc agar diffusion method; type: functional; conditions: ATCC 25923, 24 h, read-out: DIZ
Escherichia coli [4] = experiment: Antibacterial activity against Escherichia coli ATCC 35218 assessed as growth inhibition at 5 ug after 24 hrs by disc agar diffusion method; type: functional; conditions: ATCC 35218, 24 h, read-out: DIZ
Escherichia coli [5] = experiment: Antibacterial activity against Escherichia coli ATCC 35218 assessed as growth inhibition at 15 ug after 24 hrs by disc agar diffusion method; type: functional; conditions: ATCC 35218, 24 h, read-out: DIZ
Bacillus cereus [6] = experiment: Antibacterial activity against Bacillus cereus ATCC 14579 assessed as growth inhibition at 15 ug after 24 hrs by disc agar diffusion method; type: functional; conditions: ATCC 14579, 24 h, read-out: DIZ
Pseudomonas aeruginosa [7] = experiment: Antibacterial activity against Pseudomonas aeruginosa ATCC 27853 assessed as growth inhibition at 15 ug after 24 hrs by disc agar diffusion method; type: functional; conditions: ATCC 27853, 24 h, read-out: DIZ
Staphylococcus aureus [8] = experiment: Antibacterial activity against Staphylococcus aureus ATCC 25923 assessed as growth inhibition at 15 ug after 24 hrs by disc agar diffusion method; type: functional; conditions: ATCC 25923, 24 h, read-out: DIZ
Bacillus cereus [9] = experiment: Antibacterial activity against Bacillus cereus ATCC 14579 assessed as growth inhibition at 20 ug after 24 hrs by disc agar diffusion method in presence of sulbactam; type: functional, organism-based
Staphylococcus aureus [10] = experiment: Antibacterial activity against Staphylococcus aureus ATCC 25923 assessed as growth inhibition at 20 ug after 24 hrs by disc agar diffusion method in presence of sulbactam; type: functional; conditions: ATCC 25923, 24 h, read-out: DIZ
Pseudomonas aeruginosa [11] = experiment: Antibacterial activity against Pseudomonas aeruginosa ATCC 27853 assessed as growth inhibition at 20 ug after 24 hrs by disc agar diffusion method in presence of sulbactam; type: functional; conditions: ATCC 27853, 24 h, read-out: DIZ
Escherichia coli [12] = experiment: Antibacterial activity against Escherichia coli ATCC 35218 assessed as growth inhibition at 20 ug after 24 hrs by disc agar diffusion method in presence of sulbactam; type: functional, organism-based

SMILES: CC1COc2c(N3CCN(C)CC3)c(F)cc3c(=O)c(C(=O)O)cn1c23 (configuration not stated) [OFLOXACIN]
- zone of inhibition at 5 µg/disc (Bacillus cereus [1]): 28 mm
- zone of inhibition at 5 µg/disc (Pseudomonas aeruginosa [2]): 15 mm
- zone of inhibition at 5 µg/disc (Staphylococcus aureus [3]): 25 mm
- zone of inhibition at 5 µg/disc (Escherichia coli [4]): 24 mm

SMILES: CC[C@H]1OC(=O)C[C@@H](O)[C@H](C)[C@@H](O[C@@H]2O[C@H](C)[C@@H](O)[C@H](N(C)C)[C@H]2O)[C@@H](CCN2C[C@H](C)C[C@H](C)C2)C[C@@H](C)C(=O)/C=C/C(C)=C/[C@@H]1CO[C@@H]1O[C@H](C)[C@@H](O)[C@@H](OC)[C@H]1OC [TILMICOSIN]
- zone of inhibition at 15 µg/disc (Escherichia coli [5]): 18 mm
- zone of inhibition at 15 µg/disc (Bacillus cereus [6]): 32 mm
- zone of inhibition at 15 µg/disc (Pseudomonas aeruginosa [7]): 18 mm
- zone of inhibition at 15 µg/disc (Staphylococcus aureus [8]): 23 mm

SMILES: CC1(C)S[C@@H]2[C@H](NC(=O)[C@H](N)c3ccccc3)C(=O)N2[C@H]1C(=O)O [AMPICILLIN]
- growth inhibition (GI) (Bacillus cereus [9]): inactive
- zone of inhibition at 20 µg/disc (Staphylococcus aureus [10]): 18 mm
- zone of inhibition at 20 µg/disc (Pseudomonas aeruginosa [11]): 12 mm
- growth inhibition (GI) (Escherichia coli [12]): inactive
